Results taken from PMC12196810, “A Dual Bioassay for Evaluation of Embryotoxicity and Acute Toxicity of Common Solvents and Surfactants in Artemia salina” (Toxics, 2025).
Entries after “also recorded” stand apart in the source; their conditions may differ.

Experiments:
Artemia salina cysts [1] = assay: Hatching and development of nauplii (stage groups A–D); format: in vivo; details: for individuals reaching Group D (Instar I–III): 48 h
Protocol: Each sample was monitored using a stereo-microscope (STMLAB, Monza, Italy) and a bright-field microscope (Euromex, Bscope series, Groningen, The Netherlands) at both moments of determination. After 48 h, a mixture of ethanol and acetic acid in the ratio of 3:1 (v/v) was added to each sample to ensure the preservation for further observations. Depending on the development stage of each sample, the hatching process was divided into four main groups (A–D), and expressed as percents (%). The first group were the unhatched eggs (group A) that remain unchanged between the rehydration operation and the moment of observation; in the second group were the eggs with a broken shell (group B) with evident cracks and modified shape; the third category corresponds to the hatching moment, and it was noted as stage 0 (group C), when the nauplii are pear-shaped or umbrella-shaped and immobile; the fourth stage corresponds to larval stages that comprise the naupliar development stages Instar I–III (group D). All samples were compared to the untreated control to identify non-disruptive concentrations and solvent compatibility for future hatching assays.

Artemia salina nauplii = assay: Brine shrimp lethality test; details: for toxicity in the lethality test, in words: 24 and 48 h, 0.05–5% (w/v); for LC50: nauplii, 0.05–5.0% (w/v) tested; for LC50 values: both timepoints (24 and 48 h), summary statement
Protocol: Artemia salina cysts were hatched in beakers filled with artificial sea water at a salinity of 35 g/L, under continuous aeration, and at a temperature of 25 ± 1 °C for 48 h and a light/dark cycle of 16/8 h. The constant conditions were maintained using a plant growth chamber (Sanyo MLR-351 H, San Diego, CA, USA). After hatching, the Artemia nauplii were separated and brought in aerated fresh artificial sea water. A number of ten nauplii were added in tissue culture plates containing 24 wells (Greiner Bio-One, Kremsmünster, Austria), along with the tested solutions [29, 30]. […] Artificial sea water was used as negative control and sodium lauryl sulfate as positive control. The artificial seawater was prepared according to the instructions provided by the Artemia egg manufacturer, using the supplied salts dissolved in distilled water. A total of 5 L was prepared, aerated, and stored at 4 °C, in dark for no more than two weeks. Before use, the artificial seawater was aerated again. […] The lethality values were calculated and were plotted against the logarithm of concentrations, using the least square fit method to obtain lethality curves. […] The photographs were taken using an ODC 825 Microscope Digital Camera (KERN, Balingen, Germany), with a resolution of 5.1 MP and a 1/2.5″ Aptina CMOS sensor, and processed using Microscope-VIS software 2.0 (KERN Balingen, Germany).

Artemia salina cysts [2] = assay: Hatching inhibition test; format: in vivo; details: for IC50 (hatching inhibition): cysts, 0.1–2.5% (w/v) tested; for inhibition of hatching, in words: 0.1–2.5%
Protocol: SLS was used as positive control and artificial sea water as negative control. The determination was performed according to the protocols described in the literature, with some modifications.
Each sample was performed in duplicate, and artificial sea water was used as control. The hatching process was monitored at 24 and 48 h, and stages 0 and Instar I–III were considered for the quantification. Randomization and blinding were not applied in the assays, as the evaluation of developmental stages is considered objective and unlikely to be influenced by observer bias. The inhibition of the hatching (HI) process was calculated versus the control using the formula presented by Rotini et al.. HI50 was calculated by interpolating on the curves plotted, using the logarithm of concentrations and the hatching inhibition (%) with the least square fit method.

[3] = all concentrations (0.1–2.5%), 24 and 48 h
[4] = 48 h, all concentrations (0.05–5%)

Compound	toxicity in the lethality test, in words (Artemia salina nauplii)	LC50 (Artemia salina nauplii; 24 h exposure) [%]	lethality (Artemia salina nauplii; 48 h, concentrations ≥ 1%) [%]	LC50 (Artemia salina nauplii; 48 h exposure) [%]	effect on development, in words (Artemia salina cysts [1]; 0.1–2.5%, 24 and 48 h)	inhibition of hatching, in words (Artemia salina cysts [2]; 24 and 48 h)	also measured
CCN(CC)C(=O)c1cccnc1 [DENA, N,N-diethylnicotinamide]	highly toxic	0.22	100	0.05	–	–	effect on development, in words (Artemia salina cysts [1]; at 2.5%): development was arrested in Groups A and B; lethality (Artemia salina nauplii; 48 h, at 0.1%): 45%; IC50 (hatching inhibition) (Artemia salina cysts [2]; 24 h): 0.97%; IC50 (hatching inhibition) (Artemia salina cysts [2]; 48 h): 1.10%; inhibition of hatching (Artemia salina cysts [2]; at 2.5%): full inhibition
CN(C)C(=O)c1ccccc1 [DMBA, N,N-dimethylbenzamide]	highly toxic	0.13	100	0.09	–	–	effect on development, in words (Artemia salina cysts [1]; from 0.5% upward): no significant presence in Group D; lethality (Artemia salina nauplii; 24 h, down to 0.5%): 100%; lethality (Artemia salina nauplii; 48 h, at 0.1%): 75%; LC50 values (Artemia salina nauplii): ≤ 1%; IC50 (hatching inhibition) (Artemia salina cysts [2]; 24 h): 0.27%; inhibition of hatching (Artemia salina cysts [2]; 24 h, high concentrations): exceeding 90%; IC50 (hatching inhibition) (Artemia salina cysts [2]; 48 h): 19.23%
CN(C)C=O [DMF, dimethylformamide]	moderate toxicity	1.24	–	1.06	–	–	lethality (Artemia salina nauplii; 48 h, at 1%): up to 80%
C[S+](C)[O-] [DMSO, dimethyl sulfoxide]	moderate-to-low toxicity; also recorded: very low toxicity	–	–	–	very low developmental toxicity	very low or no inhibition; also recorded: minimal or no inhibition	embryos developed fully (Group D) (Artemia salina cysts [1]; at 2.5%): over 80%; toxicity in the lethality test, in words (Artemia salina nauplii; listed as dimethyl sulfoxide): low toxicity; lethality (maximum) (Artemia salina nauplii; 24 h, at 0.1%): 25%; lethality (peak) (Artemia salina nauplii; 48 h, at 0.5%): 45%
CN(C)C(N)=O [DMU, N,N-dimethylurea]	moderate toxicity	0.94	100	0.08	–	–	individuals reaching Group D (Instar I–III) (Artemia salina cysts [1]; at 0.1%): over 80%; inhibition of hatching (Artemia salina cysts [2]; [3]): under 50%
OCC(O)CO [GLY, glycerol]	very low toxicity	–	–	–	negligible impact on development	very low or no inhibition; also recorded: minimal or no inhibition	toxicity in the lethality test, in words (Artemia salina nauplii; listed as Glycerin): low toxicity; lethality (Artemia salina nauplii; [4]): up to 40%
CC(O)CO (stereo not shown) [PDO, propylene glycol]	very low toxicity	–	–	1.64	minimal interference	very low or no inhibition; also recorded: minimal or no inhibition	toxicity in the lethality test, in words (Artemia salina nauplii; listed as propylene glycol): low toxicity; lethality (Artemia salina nauplii; 48 h, highest concentration (5%)): 95%
Cc1ccc(S(=O)(=O)O)cc1.[Na] [PTS, sodium p-toluenesulfonate]	highly toxic	–	100	–	–	–	individuals reaching Group D (Instar I–III) (Artemia salina cysts [1]; at 1%): over 60%; effect on development, in words (Artemia salina cysts [1]; at 2.5%): Groups A and B became dominant; lethality (Artemia salina nauplii; 24 h, highest concentration (5%)): 100%; lethality (Artemia salina nauplii; 48 h, at 0.1%): 90%; LC50 values (Artemia salina nauplii): ≤ 1%; IC50 (hatching inhibition) (Artemia salina cysts [2]; 24 h): ~2.49%; inhibition of hatching (Artemia salina cysts [2]; at 2.5%): strong suppression
O=S(=O)([O-])c1cccc(S(=O)(=O)[O-])c1.[Na+].[Na+] [SBDS, sodium benzene-1,3-disulfonate]	–	–	–	–	low impact on embryonic development	–	inhibition of hatching (Artemia salina cysts [2]; [3]): under 50%
O=S(=O)([O-])c1ccccc1.[Na+] [SBS, sodium benzenesulfonate]	moderate toxicity	0.93	100	0.21	moderate developmental delay	only moderate suppression	–
CCCCCCCCCCCCOS(=O)(=O)[O-].[Na+] [SLS, sodium lauryl sulfate, reference compound]	highly toxic; also recorded: such high mortality at all tested concentrations	–	–	–	complete developmental arrest	complete or near complete inhibition	lethality (Artemia salina nauplii; 24 h, across all concentrations (0.05–5%)): 100%; lethality (Artemia salina nauplii; [4]): 100%
NC(N)=O [Urea, urea]	moderate toxicity	1.11	–	0.74	–	–	effect on development, in words (Artemia salina cysts [1]; at 2.5%): some developmental delay; inhibition of hatching (Artemia salina cysts [2]; [3]): under 50%
Tween 20	such high mortality at all tested concentrations	–	–	–	–	–	–
Tween 80	such high mortality at all tested concentrations	–	–	–	–	–	–
sodium xylenesulfonate [SXS]	–	1.01	100	0.79	–	–	effect on development, in words (Artemia salina cysts [1]; at 2.5%): no development beyond Group B occurred; LC50 values (Artemia salina nauplii): ≤ 1%; IC50 (hatching inhibition) (Artemia salina cysts [2]; 24 h): 0.28%; IC50 (hatching inhibition) (Artemia salina cysts [2]; 48 h): 0.41%; inhibition of hatching (Artemia salina cysts [2]; at 2.5%): 100%
